Assay results from patent publication US20060159772A1, “Fungicidal compositions” (priority 2002, published 2006).
Where two headings read alike, the source gives them in different places.

Tests used:
Plasmopara viticola = assay: Greenhouse test against downy mildew, preventive application to vine leaves (Example 4); assay type: in vivo, Plasmopara viticola on vine plants, cv. Dolcetto; settings: for pest or weed control at 0.2 ppm: 0.20 ppm
Procedure: Determination of the fungicidal efficacy against downy mildew (Plasmopara viticola) in preventive application to vine leaves in greenhouse.
Leaves of vine plants, cv. Dolcetto, grown up in pots in conditioned environment at 25° C. and 60% relative humidity, were sprayed on both sides with hydroacetonic solutions (20% of acetone by volume) of the compounds under testing, the potassium phosphite (K2HPO3+KH2PO3) aqueous solutions and the mixtures of both components.
Seven days after the treatments, the leaves of treated plants and untreated controls were sprayed on the lower surface with aqueous suspension of Plasmopara viticola conidia (200.000 conidia/ml); after beeing kept for 24 h at 21° C. in environment moist at saturation, the plants were transfered to other conditioned environment at 70% relative humidity and 21° C. for 7 days.
After this period the degree of infection was evaluated and the activity of the compounds tested was expressed as % of disease control in comparison to the untreated controls: 100=healty plant; 0=completely infected plant.
In tables 6-20 are reported the results obtained for the compounds tested alone and in mixture with potassium phosphite at the indicated dosages. When the % disease control value found is higher than the value expected applying the Limpel formula (see Example 3), a synergic effect is verified.

Phytophthora infestans = assay type: in vivo, Phytophthora infestans on potato plants, Miura variety; settings: 1400 g/hl active principle; average of 3 tests on potato plants in Great Britain, 2002

## COCC(=O)N(c1c(C)cccc1C)[C@H](C)C(=O)OC [mefenoxam, methyl N-(2-methoxyacetyl)-N-2,6-xylyl-R-alaninate]
Plasmopara viticola; Plasmopara viticola, topical, 168 h, 0.10 ppm, Table 8, read-out: % Disease Control: found
  pest or weed control at 0.1 ppm: 48%

## potassium phosphite (K2HPO3+KH2PO3)
Phytophthora infestans
  % disease control leaves: 23%
Plasmopara viticola; 60 ppm, inoculation 7 days after treatment
  % Disease Control: found: 35%

## O=[N+]([O-])c1cc(C(F)(F)F)c(Cl)c([N+](=O)[O-])c1Nc1ncc(C(F)(F)F)cc1Cl [fluazinam, 3-chloro-N-(3-chloro-5-trifluoromethyl-2-pyridyl)-α,α,α-trifluoro-2,6-dinitro-p-toluidine]
Plasmopara viticola; Plasmopara viticola, topical, 168 h, 20 ppm, Table 20, read-out: % Disease Control: found
  pest or weed control at 20 ppm: 48%

## CO/C=C(/C(=O)OC)c1ccccc1Oc1cc(Oc2ccccc2C#N)ncn1 [azoxystrobin]
Plasmopara viticola; 0.11 ppm, Table 11
  % Disease Control: found: 69%

## CC(C)OC(=O)N[C@H](C(=O)N[C@H](C)c1nc2ccc(F)cc2s1)C(C)C [benthiavalicarb]
Plasmopara viticola; Plasmopara viticola, topical, 168 h, 0.25 ppm, Table 10, read-out: % Disease Control: found
  pest or weed control at 0.25 ppm: 47%

## CC1(c2ccc(Oc3ccccc3)cc2)OC(=O)N(Nc2ccccc2)C1=O (centres unmarked) [famoxadone, 5-methyl-5-(4-phenoxyphenyl)-3-(phenylamino)oxazolidin-2,4-dione]
Plasmopara viticola; Plasmopara viticola, topical, 168 h, 0.45 ppm, Table 12, read-out: % Disease Control: found
  pest or weed control at 0.45 ppm: 56%

## COc1ccc(C(=CC(=O)N2CCOCC2)c2ccc(Cl)cc2)cc1OC [dimethomorph, (E,Z)-4-[3-(4-chlorophenyl)-3-(3,4-dimethoxyphenyl)acryloyl]-morpholine]
Plasmopara viticola; Plasmopara viticola, topical, 168 h, 0.45 ppm, Table 15, read-out: % Disease Control: found
  pest or weed control at 0.45 ppm: 73%

## COCC(=O)N(c1c(C)cccc1C)C(C)C(=O)OC (centres unmarked) [metalaxyl, methyl N-(2-methoxyacetyl)-N-2,6-xylyl-RS-alaninate]
Plasmopara viticola; Plasmopara viticola, topical, 168 h, Table 7, read-out: % Disease Control: found
  pest or weed control at 0.2 ppm: 45%

## CCNC(=O)NC(=O)C(C#N)=NOC [cymoxanil, 1-(2-cyano-2-methoxyimino-acetyl)-3-ethyl urea]
Plasmopara viticola; Plasmopara viticola, topical, 168 h, 30 ppm, Table 6, read-out: % Disease Control: found
  pest or weed control at 30 ppm: 59%

## Cc1ccc(C(C)NC(=O)C(NC(=O)OC(C)C)C(C)C)cc1 (centres unmarked) [iprovalicarb, O-(1-methyl-ethyl)-N-[2-methyl-1-[[[1-(4-methylphenyl)-ethyl]amino]carbonyl]propyl]carbamate]
Plasmopara viticola; 0.45 ppm, Table 9
  % Disease Control: found: 50%

## COCC(=O)N(c1c(C)cccc1C)N1CCOC1=O [oxadixyl, 2-methoxy-N-(2-oxo-1,3-oxazolidin-3-yl)aceto-2′,6′-xylidide]
Plasmopara viticola; Plasmopara viticola, topical, 168 h, Table 18, read-out: % Disease Control: found
  pest or weed control at 0.2 ppm: 49%

## N#Cc1c(Cl)c(Cl)c(Cl)c(C#N)c1Cl [chlorothalonil, 1,3-dicyano-2,4,5,6-tetrachlorobenzene]
Plasmopara viticola; Plasmopara viticola, topical, 168 h, 7.5 ppm, Table 16, read-out: % Disease Control: found
  pest or weed control at 7.5 ppm: 46%

## Cc1ccc(-c2c(Cl)nc(C#N)n2S(=O)(=O)N(C)C)cc1 [cyazofamide, 2-cyano-4-chloro-′5-(4-methylphenyl)-1-(N,N-dimethylaminosulfamoyl)-imidazole]
Plasmopara viticola; 15 ppm, Table 14
  % Disease Control: found: 68%
